The supplement of paper PMC10307832

Legend:
Test in all cases: relative viability (nuclei count vs DMSO), 5 days (fraction); higher = more cells survive
[1] = compound: CO[C@@H]1[C@H](N(C)C(=O)c2ccccc2)C[C@H]2O[C@]1(C)n1c3ccccc3c3c4c(c5c6ccccc6n2c5c31)C(=O)NC4 [Midostaurin] + CC(=O)Nc1cccc(-n2c(=O)n(C3CC3)c(=O)c3c(Nc4ccc(I)cc4F)n(C)c(=O)c(C)c32)c1 [Trametinib] (partner 0.02 µM)
How it was run: (§1)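 Lung cancer cell lines were pin-tool dosed in 1536-well plates on the day after seeding, with either a lone drug or a fixed anchor-drug dose plus five library-drug doses (not always all listed) in √10 steps. Nuclei were counted on 4× images after 5 days. Relative viability is the ratio of treated-well to vehicle-well nuclei counts, with each value a median of duplicate plates.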

[2] = compound: CO[C@@H]1[C@H](N(C)C(=O)c2ccccc2)C[C@H]2O[C@]1(C)n1c3ccccc3c3c4c(c5c6ccccc6n2c5c31)C(=O)NC4 [Midostaurin] + CS(=O)(=O)N1CCN(Cc2cc3nc(-c4cccc5[nH]ncc45)nc(N4CCOCC4)c3s2)CC1 [Pictilisib] (partner 1 µM)
How it was run: as §1

[3] = compound: CO[C@@H]1[C@H](N(C)C(=O)c2ccccc2)C[C@H]2O[C@]1(C)n1c3ccccc3c3c4c(c5c6ccccc6n2c5c31)C(=O)NC4 [Midostaurin] + Nc1ncn([C@H]2C[C@H](O)[C@@H](CO)O2)c(=O)n1 [Decitabine] (partner 2 µM)
How it was run: as §1

[4] = compound: COc1cc(-c2nn([C@H]3CC[C@H](N4CCN(C(C)=O)CC4)CC3)c3ncnc(N)c23)ccc1NC(=O)c1cc2ccccc2n1C + CC1(C)CCC(c2ccc(Cl)cc2)=C(CN2CCN(c3ccc(C(=O)NS(=O)(=O)c4ccc(N[C@H](CCN5CCOCC5)CSc5ccccc5)c(S(=O)(=O)C(F)(F)F)c4)cc3)CC2)C1 [Navitoclax] (partner 0.5 µM)
How it was run: as §1

[5] = compound: COc1cc(-c2nn([C@H]3CC[C@H](N4CCN(C(C)=O)CC4)CC3)c3ncnc(N)c23)ccc1NC(=O)c1cc2ccccc2n1C + Cc1nc(Nc2ncc(C(=O)Nc3c(C)cccc3Cl)s2)cc(N2CCN(CCO)CC2)n1 [Dasatinib] (partner 0.075 µM)
How it was run: as §1

Cell Line | relative viability ([1]; first compound 0.01 µM) | relative viability ([1]; first compound 0.03162 µM) | relative viability ([1]; first compound 0.1 µM) | relative viability ([1]; first compound 0.3162 µM) | relative viability ([2]; first compound 0.01 µM) | relative viability ([2]; first compound 0.03162 µM) | relative viability ([2]; first compound 0.1 µM) | relative viability ([2]; first compound 0.3162 µM) | relative viability ([3]; first compound 0.01 µM) | relative viability ([3]; first compound 0.03162 µM) | relative viability ([3]; first compound 0.1 µM) | relative viability ([3]; first compound 0.3162 µM) | relative viability ([4]; first compound 0.0128 µM) | relative viability ([4]; first compound 0.04048 µM) | relative viability ([4]; first compound 0.128 µM) | relative viability ([4]; first compound 1.28 µM) | relative viability ([5]; first compound 0.0128 µM) | relative viability ([5]; first compound 0.04048 µM) | relative viability ([5]; first compound 0.128 µM) | relative viability ([5]; first compound 1.28 µM)
RERF-LC-KJ | 0.854 | 0.921 | 0.84 | 0.806 | 0.501 | 0.51 | 0.579 | 0.46 | 0.748 | 0.75 | 0.724 | 0.658 | 0.829 | 1.09 | 0.94 | 0.837 | 0.816 | 0.76 | 0.772 | 0.794
NCI-H1650 | 0.64 | 0.587 | 0.594 | 0.694 | 0.616 | 0.592 | 0.657 | 0.569 | 0.352 | 0.418 | 0.426 | 0.517 | 1.34 | 1.5 | 1.44 | 1.1 | 0.265 | 0.304 | 0.32 | 0.29
BEN | 1.05 | 0.976 | 1.06 | 1.25 | 0.65 | 0.584 | 0.608 | 0.652 | 0.732 | 0.712 | 0.685 | 0.806 | 0.062 | 0.261 | 0.0628 | 0.0568 | 0.251 | 0.32 | 0.351 | 0.318
EMC-BAC-2 | 0.853 | 0.791 | 0.876 | 0.699 | 0.559 | 0.454 | 0.494 | 0.475 | 0.922 | 0.933 | 0.897 | 0.818 | 1.19 | 1.08 | 1.15 | 1.05 | 0.309 | 0.391 | 0.244 | 0.481
LU99A | 0.592 | 0.558 | 0.421 | 0.456 | 0.299 | 0.316 | 0.302 | 0.245 | 0.912 | 0.948 | 0.657 | 0.594 | 0.854 | 0.842 | 0.773 | 0.815 | 0.541 | 0.541 | 0.634 | 0.556
ABC-1 |  |  |  |  | 0.795 | 0.639 | 0.654 | 0.775 | 1.02 | 1.14 | 0.942 | 1.26 |  |  |  |  | 0.613 | 0.505 | 0.542 | 0.688
NCI-H2170 | 0.965 | 0.9 | 0.894 | 1.02 | 0.31 | 0.28 | 0.301 | 0.317 | 0.5 | 0.495 | 0.441 | 0.456 | 0.652 | 0.749 | 0.579 | 0.453 | 0.554 | 0.494 | 0.559 | 0.592
NCI-H1299 |  |  |  |  | 0.838 | 0.73 | 0.527 | 0.273 |  |  |  |  | 1.06 | 1.15 | 1.08 | 1.13 |  |  |  | 
EBC-1 |  |  |  |  | 0.504 | 0.272 | 0.294 | 0.196 |  |  |  |  | 0.422 | 0.501 | 0.422 | 0.339 |  |  |  | 
